Non-standard residues stand in square brackets, D forms with d. Residues, ends and D or L forms follow the SMILES beside them. *: point of attachment. Thz = O=C(O)[C@@H]1CSCN1; Cbz = O=C(OCc1ccccc1)*
How the values were obtained:
[1] = test system: SCOP-induced amnestic rat; assay: Step-down type passive avoidance test in scopolamine-induced amnestic rats; format: in vivo, rat (Wister strain); conditions: for Acquisition trial: Step-down latency / Acquisition trial: Number of step-down / Acquisition trial: Total time for the test: scopolamine after learning; for Retention trial: Step-down latency after 24 hours / Retention trial: Step-down latency after 48 hours: scopolamine 3.0 mg/kg i.p. after learning
Procedure: (2) A step-down type passive avoidance test
This test was carried out by using the undermentioned apparatus (A) and test animal (B) according to the undermentioned testing method (C).
(A) Test chamber for passive avoidance response of rats
A test chamber of 200(w)×200(1) mm in area was made of transparent acrylic resin plates for observation of the inside and was provided on one side thereof with an electrically insulated platform of 150(w)×200(1)×40(h) in size and on the bottom with a grid floor made of stainless steel which was equipped with a foot-shock generator/scrumbler (HASG-101/S, Medical Agent, Inc.) capable of sending electric current to the grid floor for giving a test animal electric foot shock.
5-Weeks-old male rats of Wister strain weighing 100-145 g (Japan Clea Co., Ltd.) were used as test animals.
The passive avoidance test consists of two steps; an acquisition trial and a retention trial. […] As control, only saline was administered intraperitoneally to a group of the rats. In the acquisition trial, the rat was placed on the platform in the test chamber and, when the rat stepped down on the floor, the electric current of 4 mA was immediately sent to the grid continuously until the rat went up on the platform. At the time the rat having gone up on the platform stayed there for more than 20 seconds, the rat was regarded to have learned the situation and taken out of the test chamber. Repeating this test with another rat under the same condition, the rats learned the situation were collected as passing the test for the acquisition trial. A total time of measurement in the acquisition trial was limited to 300 seconds as maximum, and the time elapsing until the rat stepped down to the grid floor (step-down latency, SDL), the total time elapsing until the rat learned the situation and the times of step-down were measured. […] Immediately after the acquisition trial, scopolamine hydrobromide (SCOP) dissolved in saline was administered intraperitoneally in a dose of 3.0 mg/kg of body weight to the rat to prepare a SCOP-induced amnestic rat. As control, only saline was administered intraperitoneally to a group of the rats. The retention trial was carried out by putting the rat on the platform of the test chamber after the lapse of 24 and 48 hours from the acquisition trial, and the time elapsing until the rat went down to the floor (SDL) was measured. A statistical treatment of the data obtained was made according to the Student's t-test.

prolyl endopeptidase = target: T1, prolyl endopeptidase (Homo sapiens, UniProt P48147); assay: Inhibitory activity to prolyl endopeptidase (IC50); format: biochemical
T1 sequence (P48147 1-710): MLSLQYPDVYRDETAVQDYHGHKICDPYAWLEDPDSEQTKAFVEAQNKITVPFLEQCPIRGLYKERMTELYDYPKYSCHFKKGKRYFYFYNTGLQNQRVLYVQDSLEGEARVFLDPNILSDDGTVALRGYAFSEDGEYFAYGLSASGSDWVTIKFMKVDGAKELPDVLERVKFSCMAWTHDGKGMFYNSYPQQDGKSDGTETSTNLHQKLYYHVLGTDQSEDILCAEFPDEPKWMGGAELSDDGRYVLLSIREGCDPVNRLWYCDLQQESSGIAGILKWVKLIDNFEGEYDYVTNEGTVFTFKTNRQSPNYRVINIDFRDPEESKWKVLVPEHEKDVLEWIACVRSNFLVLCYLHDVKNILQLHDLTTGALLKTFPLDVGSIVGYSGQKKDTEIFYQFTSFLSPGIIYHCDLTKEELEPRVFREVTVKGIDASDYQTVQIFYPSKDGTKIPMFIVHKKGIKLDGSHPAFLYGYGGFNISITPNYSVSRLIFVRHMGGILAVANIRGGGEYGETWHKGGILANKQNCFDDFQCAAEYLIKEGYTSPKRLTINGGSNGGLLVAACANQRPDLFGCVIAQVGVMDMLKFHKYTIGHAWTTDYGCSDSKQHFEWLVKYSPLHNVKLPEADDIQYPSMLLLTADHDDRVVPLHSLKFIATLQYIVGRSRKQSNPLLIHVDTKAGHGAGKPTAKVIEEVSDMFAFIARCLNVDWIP

[2] = 2.2 mg/kg i.p. one hour before acquisition trial

Compound	Acquisition trial: Step-down latency [1, 2]	Retention trial: Step-down latency after 24 hours ([1]; 2.2 mg/kg i.p.)	Retention trial: Step-down latency after 48 hours ([1]; 2.2 mg/kg i.p.)	Acquisition trial: Number of step-down ([1]; 2.2 mg/kg i.p.)	Acquisition trial: Total time for the test ([1]; 2.2 mg/kg i.p.)	Inhibitory activity in vitro (in words) (prolyl endopeptidase)	Retention trial: Step-down latency after 24 hours ([1]; 11.0 mg/kg i.p.)	Retention trial: Step-down latency after 48 hours ([1]; 11.0 mg/kg i.p.)	Acquisition trial: Number of step-down ([1]; 11.0 mg/kg i.p.)	Acquisition trial: Step-down latency ([1]; 11.0 mg/kg i.p.)	Acquisition trial: Total time for the test ([1]; 11.0 mg/kg i.p.)
O=C([C@@H]1CSCN1C(=O)OCc1ccccc1)N1CSC[C@H]1CO [Example 3, N-benzyloxycarbonyl-L-thioprolyl-L-thioprolinol]	9.8 s	238.2 s	174.0 s	2.4 times	67.5 s	not effective in vitro	–	–	–	–	–
O=C[C@@H]1CSCN1C(=O)[C@@H]1CSCN1C(=O)OCc1ccccc1 [Example 4, N-benzyloxycarbonyl-L-thioprolyl-L-thioprolinal] (Cbz-[Thz]-[Thz]-aldehyde)	7.6 s	170.9 s	176.5 s	2.0 times	52.1 s	–	245.7 s	177.0 s	2.2 times	8.9 s	57.1 s

Source: patent US5411976A, “New thiazolidine derivatives, process for preparing same and anti-amnestic composition containing same” (Kabushiki Kaisha Yakult Nonsha, priority 1987, dated 1995)
